The target of the test is T1, HsOrco (with AgOR10) (Harpegnathos saltator, UniProt E2BJ30).
T1 construct: gene Orco; full-length CDS from worker antennal cDNA; cRNA in Xenopus oocytes with mosquito AgOR10; with Odorant receptor 10 (Anopheles gambiae)
T1 sequence (E2BJ30 1-479): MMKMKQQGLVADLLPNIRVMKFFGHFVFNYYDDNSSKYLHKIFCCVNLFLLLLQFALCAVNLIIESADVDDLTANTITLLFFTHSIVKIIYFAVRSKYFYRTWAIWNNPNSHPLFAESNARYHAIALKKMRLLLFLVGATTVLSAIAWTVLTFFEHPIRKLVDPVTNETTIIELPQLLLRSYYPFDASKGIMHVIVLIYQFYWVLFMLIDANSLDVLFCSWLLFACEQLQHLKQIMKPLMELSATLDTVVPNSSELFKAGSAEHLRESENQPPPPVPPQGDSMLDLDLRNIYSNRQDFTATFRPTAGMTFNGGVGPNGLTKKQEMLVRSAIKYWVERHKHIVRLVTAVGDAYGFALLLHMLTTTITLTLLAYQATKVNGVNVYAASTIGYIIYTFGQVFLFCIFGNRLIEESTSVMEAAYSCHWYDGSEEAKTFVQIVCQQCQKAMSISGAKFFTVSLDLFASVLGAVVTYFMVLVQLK
T1 sequence (B5U0U7 1-375 partner): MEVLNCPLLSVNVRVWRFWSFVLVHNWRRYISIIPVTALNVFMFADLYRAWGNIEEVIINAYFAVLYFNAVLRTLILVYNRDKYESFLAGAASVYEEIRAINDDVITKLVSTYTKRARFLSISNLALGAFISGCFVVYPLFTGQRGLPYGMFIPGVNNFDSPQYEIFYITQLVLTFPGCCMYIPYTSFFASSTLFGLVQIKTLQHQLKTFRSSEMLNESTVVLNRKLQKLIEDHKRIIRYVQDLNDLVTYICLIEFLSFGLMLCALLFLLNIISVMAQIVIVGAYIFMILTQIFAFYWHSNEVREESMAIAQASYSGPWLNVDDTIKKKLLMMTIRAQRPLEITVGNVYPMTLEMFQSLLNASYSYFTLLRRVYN
As to the kind of experiment: two-electrode voltage clamp, Xenopus oocytes. It counts as cell-based. Conditions: Orco agonist; AgOR10 co-expressed; -80 mV. In general terms: Two-electrode voltage clamp is typically applied to oocytes expressing channels or transporters.

Each structure is given as a SMILES string.

Turning to `CCc1ccc(NC(=O)CSc2nnc(-c3cccnc3)n2CC)cc1` [VUAA1], the “two-electrode voltage clamp, Xenopus oocytes” value was “produced responses to VUAA1 (an agonist for Orco)”.

The record behind these values is PMC3431598, “Phylogenetic and Transcriptomic Analysis of Chemosensory Receptors in a Pair of Divergent Ant Species Reveals Sex-Specific Signatures of Odor Coding” (PLoS Genetics, 2012).
